# Target: T1, N-formyl peptide receptor 2 (Homo sapiens, UniProt P25090)
# T1 sequence (P25090 whole entry): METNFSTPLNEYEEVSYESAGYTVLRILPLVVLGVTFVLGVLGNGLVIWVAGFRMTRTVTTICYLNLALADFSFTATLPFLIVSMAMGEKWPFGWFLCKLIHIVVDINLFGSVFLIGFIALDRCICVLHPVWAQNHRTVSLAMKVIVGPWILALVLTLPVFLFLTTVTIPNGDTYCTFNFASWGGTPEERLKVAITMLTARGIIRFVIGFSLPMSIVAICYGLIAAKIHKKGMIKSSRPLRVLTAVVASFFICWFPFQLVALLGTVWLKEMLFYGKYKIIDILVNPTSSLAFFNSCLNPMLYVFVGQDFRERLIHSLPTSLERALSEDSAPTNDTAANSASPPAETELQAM
# Assay: concentration-dependent FPRL1 ligand displacement – cell-based, FPR counter-screen, fluorescent ligand, dose response (AID 520)
Compound,IC50,Ki
"Cc1ccc(C2c3c([nH]c(=S)[nH]c3=O)N=C3CC(C)(C)CC(=O)C32)cc1 (configuration not stated) [8,8-dimethyl-5-(4-methylphenyl)-2-sulfanylidene-5,7,9,10-tetrahydro-1H-pyrimido[4,5-b]quinoline-4,6-dione]",> 66.7 µM,> 40.3 µM
COc1ccccc1Oc1c(C)oc2c(CN(C)C)c(O)ccc2c1=O [8-Dimethylaminomethyl-7-hydroxy-3-(2-methoxy-phenoxy)-2-methyl-chromen-4-one],> 66.7 µM,
"COc1ccc(OC)c(C(=O)c2nc3c(n2O)CCCCC3)c1 [(2,5-dimethoxyphenyl)-(3-hydroxy-5,6,7,8-tetrahydro-4H-cyclohept[d]imidazol-2-yl)methanone]",> 66.7 µM,
Nc1ccc(Nc2ccccc2N)cc1 [(2-aminophenyl)-(4-aminophenyl)amine],15 µM,
"COC(=O)[C@H](C(C)C)n1c(C)c(C(C)=O)c(C(C)=O)c1C [(2S)-2-(3,4-diacetyl-2,5-dimethyl-1-pyrrolyl)-3-methylbutanoic acid methyl ester]",> 66.7 µM,
"CC1=C(C(=O)OC(C)C)[C@]2(C(=O)N(CC(N)=O)c3ccccc32)C(C#N)C(=N)O1 (stereo partly drawn) [(3R)-6'-amino-1-(2-amino-2-keto-ethyl)-5'-cyano-2-keto-2'-methyl-spiro[indoline-3,4'-pyran]-3'-carboxylic acid isopropyl ester]",> 66.7 µM,> 40.3 µM
CCCS(=O)(=O)N1CCCC(C(=O)N2CCC(Cc3ccccc3)CC2)C1 (configuration not stated) [(4-benzylpiperidin-1-yl)-(1-propylsulfonylpiperidin-3-yl)methanone],> 66.7 µM,
Cc1ccc(Nc2nc(C3CC3)cs2)cc1 [(4-cyclopropylthiazol-2-yl)-(p-tolyl)amine],> 66.7 µM,
"Cc1ccc(C)c(C(=O)C2C(=O)C(=O)N(CCCn3ccnc3)C2c2ccncc2)c1 (configuration not stated) [(4E)-4-[(2,5-dimethylphenyl)-hydroxy-methylene]-1-(3-imidazol-1-ylpropyl)-5-(4-pyridyl)pyrrolidine-2,3-quinone]",> 66.7 µM,> 40.3 µM
"Cc1nc2c(C)cccn2c1C(=O)C1C(=O)C(=O)N(CCN2CCOCC2)C1c1cccs1 (configuration not stated) [(4E)-4-[(2,8-dimethyl-3-imidazo[1,2-a]pyridinyl)-hydroxymethylidene]-1-[2-(4-morpholinyl)ethyl]-5-thiophen-2-ylpyrrolidine-2,3-dione]",> 66.7 µM,> 40.3 µM
"COc1cccc(C2C(C(=O)c3ccc(OC)c(OC)c3)C(=O)C(=O)N2c2cc(C)on2)c1 (configuration not stated) [(4E)-4-[(3,4-dimethoxyphenyl)-hydroxy-methylene]-5-(3-methoxyphenyl)-1-(5-methylisoxazol-3-yl)pyrrolidine-2,3-quinone]",> 66.7 µM,> 40.3 µM
"COc1ccc(C(=O)C2C(=O)C(=O)N(Cc3ccco3)C2c2ccc(OC)cc2OC)cc1 (configuration not stated) [(4E)-5-(2,4-dimethoxyphenyl)-1-(2-furanylmethyl)-4-[hydroxy-(4-methoxyphenyl)methylidene]pyrrolidine-2,3-dione]",> 66.7 µM,> 40.3 µM
"Cc1ccc(C(=O)C2C(=O)C(=O)N(c3cc(C)on3)C2c2cccc(Br)c2)cc1 (configuration not stated) [(4E)-5-(3-bromophenyl)-1-(5-methyl-1,2-oxazol-3-yl)-4-[(4-methylphenyl)-oxidanyl-methylidene]pyrrolidine-2,3-dione]",> 66.7 µM,> 40.3 µM
"Cc1cc(N2C(=O)C(=O)C(C(=O)c3ccc(F)cc3)C2c2cccc(Br)c2)no1 (configuration not stated) [(4E)-5-(3-bromophenyl)-4-[(4-fluorophenyl)-hydroxy-methylene]-1-(5-methylisoxazol-3-yl)pyrrolidine-2,3-quinone]",> 66.7 µM,> 40.3 µM
"Cc1ccc(C(=O)C2C(=O)C(=O)N(CC(C)O)C2c2ccc(N(C)C)cc2)cc1 (configuration not stated) [(4E)-5-[4-(dimethylamino)phenyl]-1-(2-hydroxypropyl)-4-[hydroxy(p-tolyl)methylene]pyrrolidine-2,3-quinone]",> 66.7 µM,> 40.3 µM
"CCOc1ccc(C(=O)C2C(=O)C(=O)N(c3nc(C)c(C)s3)C2c2ccco2)cc1 (configuration not stated) [(4Z)-1-(4,5-dimethyl-1,3-thiazol-2-yl)-4-[(4-ethoxyphenyl)-hydroxymethylidene]-5-(furan-2-yl)pyrrolidine-2,3-dione]",> 66.7 µM,> 40.3 µM
"COc1ccc(C(=O)C2C(=O)C(=O)N(c3nc(C)c(C)s3)C2c2ccco2)cc1 (configuration not stated) [(4Z)-1-(4,5-dimethyl-1,3-thiazol-2-yl)-5-(furan-2-yl)-4-[(4-methoxyphenyl)-oxidanyl-methylidene]pyrrolidine-2,3-dione]",> 66.7 µM,> 40.3 µM
"COc1ccccc1C1C(C(=O)c2ccccc2)C(=O)C(=O)N1CC(C)O (configuration not stated) [(4Z)-4-[hydroxy(phenyl)methylene]-1-(2-hydroxypropyl)-5-(2-methoxyphenyl)pyrrolidine-2,3-quinone]",> 66.7 µM,> 40.3 µM

# Next, values leading:
IC50,Ki,Compound
> 66.7 µM,> 40.3 µM,"C=CCN1C(=O)C2(c3ccccc31)C(C(=O)c1ccc3c(c1)OCCO3)C(=O)C(=O)N2CCCOC (configuration not stated) [(4'E)-1-allyl-4'-[2,3-dihydro-1,4-benzodioxin-6-yl(hydroxy)methylene]-1'-(3-methoxypropyl)spiro[indoline-3,5'-pyrrolidine]-2,2',3'-trione]"
> 66.7 µM,> 40.3 µM,"COc1cc(C2C(C(=O)c3ccc4c(c3)CC(C)O4)C(=O)C(=O)N2CCCn2ccnc2)ccc1O (configuration not stated) [(4E)-1-(3-imidazol-1-ylpropyl)-5-(3-methoxy-4-oxidanyl-phenyl)-4-[(2-methyl-2,3-dihydro-1-benzofuran-5-yl)-oxidanyl-methylidene]pyrrolidine-2,3-dione]"
> 66.7 µM,> 40.3 µM,"COCCCN1C(=O)C(=O)C(C(=O)c2ccc3c(c2)CC(C)O3)C1c1cccnc1 (configuration not stated) [(4E)-1-(3-methoxypropyl)-4-[(2-methyl-2,3-dihydro-1-benzofuran-5-yl)-oxidanyl-methylidene]-5-pyridin-3-yl-pyrrolidine-2,3-dione]"
> 66.7 µM,> 40.3 µM,"COCCCN1C(=O)C(=O)C(C(=O)c2ccc(OC)cc2C)C1c1cccnc1 (configuration not stated) [(4E)-4-[(4-methoxy-2-methyl-phenyl)-oxidanyl-methylidene]-1-(3-methoxypropyl)-5-pyridin-3-yl-pyrrolidine-2,3-dione]"
> 66.7 µM,> 40.3 µM,"COCCCN1C(=O)C(=O)C(C(=O)c2ccccc2)C1c1ccc2c(c1)OCO2 (configuration not stated) [(4E)-5-(1,3-benzodioxol-5-yl)-1-(3-methoxypropyl)-4-[oxidanyl(phenyl)methylidene]pyrrolidine-2,3-dione]"
> 66.7 µM,> 40.3 µM,"CC1Cc2cc(C(=O)C3C(=O)C(=O)N(CCN4CCOCC4)C3c3ccccc3F)ccc2O1 (configuration not stated) [(4E)-5-(2-fluorophenyl)-4-[(2-methyl-2,3-dihydro-1-benzofuran-5-yl)-oxidanyl-methylidene]-1-(2-morpholin-4-ylethyl)pyrrolidine-2,3-dione]"
> 66.7 µM,> 40.3 µM,"CCOc1cccc(C(=O)C2C(=O)C(=O)N(Cc3ccco3)C2c2ccncc2)c1 (configuration not stated) [(4Z)-1-(2-furfuryl)-4-[hydroxy(m-phenetyl)methylene]-5-(4-pyridyl)pyrrolidine-2,3-quinone]"
> 66.7 µM,> 40.3 µM,"COc1ccccc1C1C(C(=O)c2ccccc2)C(=O)C(=O)N1CCO (configuration not stated) [(4Z)-1-(2-hydroxyethyl)-4-[hydroxy(phenyl)methylene]-5-(2-methoxyphenyl)pyrrolidine-2,3-quinone]"
> 66.7 µM,> 40.3 µM,"CCOc1cccc(C(=O)C2C(=O)C(=O)N(CCOC)C2c2ccc(C)o2)c1 (configuration not stated) [(4Z)-4-[(3-ethoxyphenyl)-hydroxymethylidene]-1-(2-methoxyethyl)-5-(5-methyl-2-furanyl)pyrrolidine-2,3-dione]"
> 66.7 µM,> 40.3 µM,"CCOc1cccc(C(=O)C2C(=O)C(=O)N(Cc3cccnc3)C2c2ccco2)c1 (configuration not stated) [(4Z)-4-[(3-ethoxyphenyl)-hydroxymethylidene]-5-(2-furanyl)-1-(3-pyridinylmethyl)pyrrolidine-2,3-dione]"
> 66.7 µM,> 40.3 µM,"Cc1ccc(C2C(C(=O)c3ccc(Br)cc3)C(=O)C(=O)N2Cc2ccco2)o1 (configuration not stated) [(4Z)-4-[(4-bromophenyl)-hydroxy-methylene]-1-(2-furfuryl)-5-(5-methyl-2-furyl)pyrrolidine-2,3-quinone]"
> 66.7 µM,> 40.3 µM,"Cc1ccc(C2C(C(=O)c3ccc(Cl)cc3)C(=O)C(=O)N2CC2CCCO2)o1 (configuration not stated) [(4Z)-4-[(4-chlorophenyl)-hydroxy-methylene]-5-(5-methyl-2-furyl)-1-(tetrahydrofurfuryl)pyrrolidine-2,3-quinone]"
> 66.7 µM,> 40.3 µM,"CCOc1ccc(C(=O)C2C(=O)C(=O)N(CC3CCCO3)C2c2ccco2)cc1 (configuration not stated) [(4Z)-4-[(4-ethoxyphenyl)-hydroxymethylidene]-5-(2-furanyl)-1-(2-oxolanylmethyl)pyrrolidine-2,3-dione]"
> 66.7 µM,> 40.3 µM,"CCOc1ccc(C(=O)C2C(=O)C(=O)N(CC3CCCO3)C2c2ccc(C)o2)cc1 (configuration not stated) [(4Z)-4-[(4-ethoxyphenyl)-hydroxymethylidene]-5-(5-methyl-2-furanyl)-1-(2-oxolanylmethyl)pyrrolidine-2,3-dione]"
> 66.7 µM,> 40.3 µM,"COc1ccc(C(=O)C2C(=O)C(=O)N(CCN3CCOCC3)C2c2ccc(C)cc2)cc1 (configuration not stated) [(4Z)-4-[(4-methoxyphenyl)-oxidanyl-methylidene]-5-(4-methylphenyl)-1-(2-morpholin-4-ylethyl)pyrrolidine-2,3-dione]"
> 66.7 µM,> 40.3 µM,"Cc1ccc(C(=O)C2C(=O)C(=O)N(CCN3CCOCC3)C2c2cccnc2)cc1 (configuration not stated) [(4Z)-4-[(4-methylphenyl)-oxidanyl-methylidene]-1-(2-morpholin-4-ylethyl)-5-pyridin-3-yl-pyrrolidine-2,3-dione]"
